Literature values, collected in patent US20030004143A1, “Use of NSAIDs for prevention and treatment of cellular abnormalities of the female reproductive tract” (priority 2001, published 2003).

Assays:
OPC cell lines = conditions: all OPC cell lines tested

For O=C(c1ccccc1)c1ccc2n1CCC2C(=O)O (stereo not shown) [ketorolac, (.+−.)5(benzoyl)-2,3-dihydro-1H-pyrrolizine-1carboxylic acid], the IL-6 levels (OPC cell lines) is given as “continuously and significantly decreased”, the IL-8 levels (OPC cell lines) is given as “continuously and significantly decreased” and the PGE2 production (OPC cell lines) is given as “continuously and significantly decreased”. The “OPC growth in vivo” value (OPC) was “reduced OPC growth in vivo”.
